Laboratory results reported in patent publication US10280171B2, “Heterocyclic inhibitors of PTPN11” (priority 2016, dated 2019).
pIC50: −log10 of the molar value. Read-outs that look alike come from different tables or passages of the source.

What was measured:
[1] = system: Phospho-ERK levels in KYSE-520 cells; assay: pERK AlphaScreen Protocol; assay type: cell-based; settings: KYSE-520 cells, 2 hr compound incubation, phospho-ERK1/2 AlphaScreen SureFire, read-out: PERK Avg IC50
Description: KYSE-520 cells (10 k cells/well) were grown in 384-well plate in 20 uL of medium (RPMI-1640, without phenol red, containing 10% FBS) at 37° C. with 5% CO2 overnight. DMSO (control) or increasing concentrations of compounds were diluted in medium, added to the 384-well plate (5 uL/well, final DMSO concentration of 1%), and cells were then incubated with compounds for 2 hr. Phospho-ERK levels were measured using phospho-ERK1/2 AlphaScreen SureFire (PerkinElmer, TGRESB10K) following manufacturer's recommendations. Dose-response curves were analyzed using IC50 regression curve fitting (GeneData Screener). Curves were normalized to a high control without inhibitor (DMSO only), and low control (1 μM selumetinib).

[2] = molecular target: PTPN11-E76K mutant enzyme (Homo sapiens (Human), UniProt Q06124, E76K); assay: PTPN11 Enzymatic Assay (DiFMUP phosphatase activity); assay type: biochemical; settings: DiFMUP 50 μM, 30 min preincubation
Description: Reaction was initiated by addition of DiFMUP (50 μM) at room temperature in 384-well black plate with a final reaction volume of 20 uL in assay buffer. […] Dose-response curves were analyzed using IC50 regression curve fitting (GeneData Screener). Curves were normalized to a high controls without inhibitor, and low controls without enzyme.

[3] = full length PTPN11-E76K mutant enzyme 250 pM, read-out: PTPN11-E76K Avg IC50

Sequence of PTPN11-E76K mutant enzyme (Q06124 whole entry E76K): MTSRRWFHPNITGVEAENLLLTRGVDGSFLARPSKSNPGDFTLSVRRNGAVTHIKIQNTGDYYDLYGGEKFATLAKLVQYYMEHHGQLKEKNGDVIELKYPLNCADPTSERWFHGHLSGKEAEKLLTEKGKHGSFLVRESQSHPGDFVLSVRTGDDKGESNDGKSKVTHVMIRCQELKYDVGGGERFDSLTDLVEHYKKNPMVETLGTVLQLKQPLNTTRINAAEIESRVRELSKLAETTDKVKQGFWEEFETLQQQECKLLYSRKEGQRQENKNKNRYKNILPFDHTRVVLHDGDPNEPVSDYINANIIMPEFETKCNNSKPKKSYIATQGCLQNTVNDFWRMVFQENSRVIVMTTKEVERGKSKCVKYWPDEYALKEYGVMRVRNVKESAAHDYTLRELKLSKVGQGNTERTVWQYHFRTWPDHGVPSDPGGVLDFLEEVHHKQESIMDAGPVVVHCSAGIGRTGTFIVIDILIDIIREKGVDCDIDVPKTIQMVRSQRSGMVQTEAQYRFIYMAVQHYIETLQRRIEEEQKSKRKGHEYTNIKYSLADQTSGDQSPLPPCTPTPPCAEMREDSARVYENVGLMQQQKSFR

Structure (SMILES) | pIC50 ([1]; Homo sapiens, KYSE-520, 2 h) | pIC50 [2, 3] | also measured
NC1(CO)CCN(c2cnc3c(-c4c(F)cccc4Cl)n[nH]c3n2)CC1 [Example 121, (4-Amino-1-(3-(2-chloro-6-fluorophenyl)-1H-pyrazolo[3,4-b]pyrazin-6-yl)-piperidin-4-yl)methanol] | 5.78 | 5.97 | –
Nc1cccc(-c2n[nH]c3nc(N4CCC5(CCC[C@H]5N)CC4)cnc23)c1Cl [Example 131, (1R)-8-[3-(3-amino-2-chlorophenyl)-1H-pyrazolo[3,4-b]-pyrazin-6-yl]-8-aza-spiro[4.5]decan-1-amine] | 7.46 | 7.08 | –
CC1(N)CCN(c2cnc3c(-c4cn[nH]c4C(F)(F)F)n[nH]c3n2)CC1 [Example 101, 4-Methyl-1-(3-(5-(trifluoromethyl)-1H-pyrazol-4-yl)-1H-pyrazolo[3,4-b]pyrazin-6-yl)-piperidin-4-amine] | 6.20 | 5.72 | –
COc1cccc(-c2n[nH]c3nc(N4CCC5(CCC[C@H]5N)CC4)cnc23)c1Cl [Example 50, (R)-8-(3-(2-chloro-3-methoxyphenyl)-1H-pyrazolo[3,4-b]pyrazin-6-yl)-8-azaspiro[4.5]decan-1-amine] | 7.47 | 7.41 | –
N[C@@H]1COCC12CCN(c1cnc3c(-c4cccc(Cl)c4Cl)n[nH]c3n1)CC2 [Example 38, (S)-8-(3-(2,3-Dichlorophenyl)-1H-pyrazolo[3,4-b]pyrazin-6-yl)-2-oxa-8-azaspiro[4.5]-decan-4-amine] | 7.40 | – | –
Nc1nccc(-c2n[nH]c3nc(N4CCC5(CCC5N)CC4)cnc23)c1Cl (stereo not drawn) [Example 115, 7-(3-(2-Amino-3-chloropyridin-4-yl)-1H-pyrazolo[3,4-b]pyrazin-6-yl)-7-azaspiro[3.5]nonan-1-amine] | 6.37 | – | –
CC(N)C1(C)CCN(c2cnc3c(-c4ccnc(N)c4Cl)n[nH]c3n2)CC1 (single isomer, unassigned) [Example 113a, 4-(6-(4-(1-Aminoethyl)-4-methylpiperidin-1-yl)-1H-pyrazolo[3,4-b]pyrazin-3-yl)-3-chloropyridin-2-amine] | 7.00 | 6.74 | –
CC1(CN)CCN(c2cnc3c(-c4cccc(Cl)c4F)n[nH]c3n2)CC1 [Example 25, (1-(3-(3-Chloro-2-fluorophenyl)-1H-pyrazolo[3,4-b]pyrazin-6-yl)-4-methylpiperidin-4-yl)-methanamine] | 7.33 | 7.00 | –
NC1C(F)CCC12CCN(c1cnc3c(-c4cccc(Cl)c4Cl)n[nH]c3n1)CC2 (single isomer, unassigned) [Example 64B, 8-(3-(2,3-Dichlorophenyl)-1H-pyrazolo[3,4-b]pyrazin-6-yl)-2-fluoro-8-azaspiro[4.5]decan-1-amine] | – | – | pIC50 [1]: 7.15; pIC50 ([2]; PTPN11-E76K Avg IC50, full length PTPN11-E76K mutant enzyme 250 pM): 6.66
CC1(CN)CCN(c2cnc3c(-c4ccnc(N)c4Cl)n[nH]c3n2)CC1 [Example 107, 4-(6-(4-(Aminomethyl)-4-methylpiperidin-1-yl)-1H-pyrazolo[3,4-b]pyrazin-3-yl)-3-chloropyridin-2-amine] | 6.61 | 6.79 | –
NC1(CO)CCN(c2cnc3c(-c4ccccc4Cl)n[nH]c3n2)CC1 [Example 61, (4-amino-1-(3-(2-chlorophenyl)-1H-pyrazolo[3,4-b]-pyrazin-6-yl)-piperidin-4-yl)-methanol] | 6.66 | 6.40 | –
N[C@@H]1CCCC12CCN(c1cnc3c(-c4cc(Cl)cc(Cl)c4)n[nH]c3n1)CC2 [Example 45, (R)-8-(3-(3,5-dichloro-phenyl)-1H-pyrazolo[3,4-b]-pyrazin-6-yl)-8-aza-spiro[4.5]decan-1-amine] | 5.85 | 6.45 | –
COc1cc(Cl)cc(-c2n[nH]c3nc(N4CCC(C)(CN)CC4)cnc23)c1 [Example 35, (1-(3-(3-chloro-5-methoxyphenyl)-1H-pyrazolo[3,4-b]-pyrazin-6-yl)-4-methylpiperidin-4-yl) methanamine] | 6.15 | 6.52 | –
Nc1nccc(-c2n[nH]c3nc(N4CCC5(CC4)C[C@H](O)C[C@H]5N)cnc23)c1Cl [Example 126, (2S,4R)-4-Amino-8-(3-(2-amino-3-chloropyridin-4-yl)-1H-pyrazolo[3,4-b]pyrazin-6-yl)-8-azaspiro[4.5]decan-2-ol] | – | 7.12 | –
N[C@@H]1COCC12CCN(c1cnc3c(-c4cccc(F)c4Cl)n[nH]c3n1)CC2 [Example 42, (S)-8-(3-(2-chloro-3-fluorophenyl)-1H-pyrazolo[3,4-b]-pyrazin-6-yl)-2-oxa-8-azaspiro[4.5]-decan-4-amine] | 7.20 | – | –
N[C@@H]1CCCC12CCN(c1cnc3c(-c4cccnc4Cl)n[nH]c3n1)CC2 [Example 53, (R)-8-(3-(2-chloro-pyridin-3-yl)-1H-pyrazolo[3,4-b]-pyrazin-6-yl)-8-aza-spiro[4.5]decan-1-amine] | 6.65 | – | –

Structure (SMILES) | pIC50 ([1]; Homo sapiens, KYSE-520, 2 h) | pIC50 [2, 3] | also measured
Cc1c(-c2n[nH]c3nc(N4CCC(C)(N)CC4)cnc23)ccnc1N [Example 123, 4-(6-(4-amino-4-methylpiperidin-1-yl)-1H-pyrazolo[3,4-b]pyrazin-3-yl)-3-methylpyridin-2-amine] | – | 6.17 | –
NC1(CO)CCN(c2cnc3c(-c4cccc(F)c4Cl)n[nH]c3n2)CC1 [Example 62, (4-amino-1-(3-(2-chloro-3-fluoro-phenyl)-1H-pyrazolo[3,4-b]-pyrazin-6-yl)-piperidin-4-yl)-methanol] | 6.51 | – | –
Nc1nccc(-c2n[nH]c3nc(N4CCC5(CCC5N)CC4)cnc23)c1Cl (single isomer, unassigned; enantiomer 2) [Example 136b, 7-[3-(2-amino-3-chloropyridin-4-yl)-1H-pyrazolo-[3,4-b]-pyrazin-6-yl]-7-aza-spiro[3.5]nonan-1-amine, enantiomer 2] | – | – | pIC50 [1]: 5.71
COc1cc(Cl)cc(-c2n[nH]c3nc(N4CCC5(CCC[C@H]5N)CC4)cnc23)c1 [Example 52, (R)-8-(3-(3-chloro-5-methoxyphenyl)-1H-pyrazolo[3,4-b]pyrazin-6-yl)-8-azaspiro[4.5]decan-1-amine] | – | 6.50 | –
CC1(N)CCN(c2cnc3c(-c4cccc(Cl)c4F)n[nH]c3n2)CC1 [Example 26, 1-(3-(3-chloro-2-fluorophenyl)-1H-pyrazolo[3,4-b]-pyrazin-6-yl)-4-methylpiperidin-4-amine] | – | 6.67 | –
Cc1c(Cl)cccc1-c1n[nH]c2nc(N3CCC4(CCC[C@H]4N)CC3)cnc12 [Example 51, (R)-8-(3-(3-chloro-2-methylphenyl)-1H-pyrazolo[3,4-b]pyrazin-6-yl)-8-azaspiro[4.5]decan-1-amine] | – | 6.82 | –
Cc1c(-c2n[nH]c3nc(N4CCC(C)(CN)CC4)cnc23)ccnc1N [Example 124, 4-(6-(4-(Aminomethyl)-4-methylpiperidin-1-yl)-1H-pyrazolo[3,4-b]pyrazin-3-yl)-3-methylpyridin-2-amine] | – | 6.42 | –
NC1(CO)CCN(c2cnc3c(-c4cccnc4Cl)n[nH]c3n2)CC1 [Example 59, (4-amino-1-(3-(2-chloropyridin-3-yl)-1H-pyrazolo[3,4-b]pyrazin-6-yl)-piperidin-4-yl)-methanol] | 5.98 | – | –
Nc1nccc(-c2n[nH]c3nc(N4CCC5(CCC5N)CC4)cnc23)c1Cl (single isomer, unassigned; enantiomer 1) [Example 136a, 7-[3-(2-amino-3-chloropyridine-4-yl)-1H-pyrazolo[3,4-b]-pyrazin-6-yl]-7-aza-spiro[3.5]nonan-1-amine, enantiomer 1] | 5.64 | – | –
COc1cc(-c2n[nH]c3nc(N4CCC5(CCC[C@H]5N)CC4)cnc23)ccc1Cl [Example 34, (R)-8-(3-(4-chloro-3-methoxyphenyl)-1H-pyrazolo[3,4-b]-pyrazin-6-yl)-8-aza-spiro[4.5]decan-1-amine] | – | 6.99 | –
CNc1nccc(-c2n[nH]c3nc(N4CCC(C)(N)CC4)cnc23)c1Cl [Example 112, 4-(6-(4-Amino-4-methylpiperidin-1-yl)-1H-pyrazolo[3,4-b]pyrazin-3-yl)-3-chloro-N-methylpyridin-2-amine] | 7.24 | – | –
N[C@@H]1CCCC12CCN(c1cnc3c(-c4ccc(Cl)c(Cl)c4)n[nH]c3n1)CC2 [Example 46, (R)-8-(3-(3,4-dichloro-phenyl)-1H-pyrazolo[3,4-b]-pyrazin-6-yl)-8-aza-spiro[4.5]decan-1-amine] | 6.18 | – | –
NCC1(O)CCN(c2cnc3c(-c4c(F)cccc4Cl)n[nH]c3n2)CC1 [Example 63, 4-(aminomethyl)-1-(3-(2-chloro-6-fluorophenyl)-1H-pyrazolo [3,4-b]-pyrazin-6-yl)-piperidin-4-ol] | 6.16 | – | –
CC1(N)CCN(c2cnc3c(-c4c(F)cccc4Cl)n[nH]c3n2)CC1 [Example 32, 1-(3-(2-chloro-6-fluorophenyl)-1H-pyrazolo[3,4-b]-pyrazin-6-yl)-4-methylpiperidin-4-amine] | 6.55 | – | –
Cc1c(-c2n[nH]c3nc(N4CCC5(CCC[C@H]5N)CC4)cnc23)ccnc1N [Example 122, (R)-8-(3-(2-amino-3-methylpyridin-4-yl)-1H-pyrazolo[3,4-b]pyrazin-6-yl)-8-azaspiro[4.5]decan-1-amine] | – | 6.69 | –
